Results reported in patent publication US10251902B2, “Pharmaceutical composition for treating or preventing neuropsychiatric disease, containing flavone-6-C-glucose derivatives as active ingredients” (priority 2013, dated 2019).

What was measured:
[1] = system: model of memory impairment induced by scopolamine; test: Passive avoidance test in scopolamine-induced memory impairment model; assay type: in vivo, ICR mice; details: for Main Experiment / Passive Avoidance Learning: scopolamine 1 mg/Kg i.p.; for Main Experiment: latency 24 h after learning; for latency time extended compared to that of the control 2: main experiment, control 2 = scopolamine
Protocol: (§1) An experiment was conducted to confirm effects of swertisin or isoorientin, and extracts of Swertia pseudochinensis or Swertia japonica containing the same prepared in Examples 1 to 3 in treating dementia by using a model of memory impairment induced by scopolamine. Detailed method follows.
(§2) Six-week old ICR mice in about 26 g to 28 g (Orientbio Inc, Republic of Korea) were received water and feed without constraint and adapted for 5 days under an environment having about 23±1° C. of temperature, about 60±10% of humidity and 12-hour light/dark cycle (animal laboratory at College of Pharmacy, Kyung-Hee University), and then used for the experiment.
An apparatus for measuring passive avoidance reaction was prepared. The apparatus has 2 separated chambers (the first and second chambers) and there is a guillotine-shaped passage that connects the first chamber and the second chamber. The first chamber was maintained brightly by using a light, and the second chamber was maintained darkly. A grid was installed on the floor of the second chamber. The grid generates 0.5 mA of electric shock for 3 seconds when the laboratory animal moved into the dark chamber.
About 30 minutes later, 1 mg/Kg of scopolamine, which was dissolved in distilled water, was intraperitoneally administered to the drug administration groups 1 to 4 and controls 1 and 2 (Ebert, U. et al., Eur. J. Clin. Invest., 28, pp 944-949, 1998), and 0.9% of saline solution was intraperitoneally administered to the control 3. After 30 minutes, passive avoidance learning was conducted on the drug administration groups 1-4 and controls 1-3. In detail, the mice were located in the first chamber (i.e. bright space) and the passage was open after about 20 seconds of observation time, and then latency time of the mice moving to the second chamber (i.e. dark space) was measured.
Twenty-four hours after the passive avoidance learning, a main experiment was conducted on the drug administration groups 1-4 and controls 1-3. Latency time of the mice of each group moving their 4 legs into the dark space after 10 seconds of observation time from opening of the guillotine-shaped passage was measured up to 300 seconds. It means that the passive avoidance learning and memory are better if the latency time is longer.
(§3) The passive avoidance test was conducted on the drug administration groups 1-4 and controls 1-3 in the same manner as the method explained above except that swertisin, which is one of the flavone-6-C-β-D-glucose derivatives prepared in Example 3, was dissolved in 10% Tween 80 and administered to the drug administration groups 1-4 in amounts of 1.25 mg/kg, 2.5 mg/kg, 5 mg/kg and 10 mg/kg respectively.
as §3, with “Experimental Example 1-1” for “the method explained above”, “isoorientin,” for “swertisin,”
(§4) The passive avoidance test was conducted on the drug administration groups 1-3 and controls 1-3 in the same manner as Experimental Example 1-1 except that a 70% ethanol extract of Swertia japonica prepared in Example 1, was dissolved in 10% Tween and administered to the drug administration groups 1-3 in amounts of 100 mg/kg, 200 mg/kg and 400 mg/kg respectively.
as §4, with “pseudochinensis” for “japonica”, “2,” for “1,”, “Tween 80” for “Tween”

[2] = system: model of memory impairment induced by scopolamine; test: Y-maze test in scopolamine-treated mice; assay type: in vivo, ICR mice; details: donepezil 5 mg/Kg (Control 1), scopolamine 1 mg/Kg i.p.
Protocol: as §1, §2
A Y-maze was prepared for the experiment. The Y-maze has 3 branches and each branch has 42 cm of length, 3 cm of width and 12 cm of height. Angle between any two arms is 120 degrees and the arms were made of black polyvinyl resin.
The mice prepared in the above 1) were separated into 5 groups (10 mice per each group) comprised of drug administration groups 1 and 2, and controls 1 to 3.
The swertisin prepared in Example 3 (8 mg) was dissolved in 4 mL of 10% Tween 80 (Polyoxyethylene sorbitan monooleate: Sigma, U.S.A.), and administered to the drug administration groups 1 and 2 in an amounts of 5 mg/Kg and 10 mg/Kg respectively. Meanwhile, 5 mg/Kg of donepezil was administered to the control 1, and 0.15 mL of 10% Tween 80 was administered to the controls 2 and 3 respectively.
About 30 minutes later, 1 mg/Kg of scopolamine, which was dissolved in distilled water, was intraperitoneally administered to the drug administration groups 1 and 2, and controls 1 and 2 (Ebert, U. et al., Eur. J. Clin. Invest., 28, pp. 944-949, 1998), and 0.9% of saline solution was intraperitoneally administered to the control 3.
After 30 minutes, mice of the drug administration groups 1 and 2, and the controls 1-3 were carefully located on each branches of the Y-maze, which was divided as A, B and C respectively, and let the mice move freely for 8 minutes, and then recorded branches where mice have entered. The entrance was recorded when the entire body (i.e. including the tail) has completely entered. It was also recorded when the mice entered again into the branch that the mice have entered before.
One point was scored when the mouse sequentially entered into 3 different branches (actual alternation). Alternation behavior is defined as sequentially entering into every 3 branch, and it was converted into % via Equation 1 below (Sarter, M. et al., Psychopharmacology., 94, pp. 491-495, […]).

Structure (SMILES): COc1cc2c(cc1OC)C(=O)C(CC1CCN(Cc3ccccc3)CC1)C2 (stereo not drawn) [Donepezil, donepezil, reference compound]
- Main Experiment ([1]; Table 2, Control 1 (Donepezil), dose not given): 138.7 ± 34.03 s
- Passive Avoidance Learning ([1]; Table 2, Control 1 (Donepezil), dose not given, learning trial): 25.60 ± 10.83 s
- Main Experiment ([1]; Table 3, Control 1 (Donepezil), dose not given): 127.8 ± 11.43 s
- Passive Avoidance Learning ([1]; Table 3, Control 1 (Donepezil), dose not given, learning trial): 21.30 ± 4.964 s
- Main Experiment ([1]; Table 4, Control 1 (Donepezil), dose not given): 169.6 ± 79.98
- Passive Avoidance Learning ([1]; Table 4, Control 1 (Donepezil), dose not given, learning trial): 26.40 ± 16.23
- Main Experiment ([1]; Table 5, Control 1 (Donepezil), dose not given): 159.6 ± 65.51
- Passive Avoidance Learning ([1]; Table 5, Control 1 (Donepezil), dose not given, learning trial): 28.10 ± 19.02
- Alternation Behavior (%) ([2]; Table 6, 8 minutes in Y-maze): 61.49 ± 5.447%
- Total Entry ([2]; Table 7, total number of entry to each branch, 8 minutes): 29.30 ± 4.296

Structure (SMILES): O=c1cc(-c2ccc(O)c(O)c2)oc2cc(O)c([C@@H]3O[C@H](CO)[C@@H](O)[C@H](O)[C@H]3O)c(O)c12 [isoorientin]
- Main Experiment ([1]; Table 3, isoorientin 1.25 mg/kg, up to 300 seconds): 41.00 ± 7.988 s
- Passive Avoidance Learning ([1]; Table 3, isoorientin 1.25 mg/kg, latency in learning trial): 43.60 ± 5.340 s
- Main Experiment ([1]; Table 3, isoorientin 2.5 mg/kg, up to 300 seconds): 80.90 ± 19.44 s
- Passive Avoidance Learning ([1]; Table 3, isoorientin 2.5 mg/kg, latency in learning trial): 40.00 ± 5.499 s
- Main Experiment ([1]; Table 3, isoorientin 5 mg/kg, up to 300 seconds): 119.3 ± 73.43 s
- Passive Avoidance Learning ([1]; Table 3, isoorientin 5 mg/kg, latency in learning trial): 35.20 ± 5.236 s
- Main Experiment ([1]; Table 3, isoorientin 10 mg/kg, up to 300 seconds): 102.8 ± 15.89 s
- Passive Avoidance Learning ([1]; Table 3, isoorientin 10 mg/kg, latency in learning trial): 26.80 ± 5.085 s
- latency time extended compared to that of the control 2 ([1]; isoorientin 2.5 mg/Kg): about 2 fold
- latency time extended compared to that of the control 2 ([1]; isoorientin 5 mg/Kg): about 3 fold
- latency time extended compared to that of the control 2 ([1]; isoorientin 10 mg/Kg): about 2.5 fold
